From patent US9074014B2 (Ipsen Pharma S.A.S., priority 2008, dated 2015) come the findings set out here.

The nature of data set [1]: Human plasma half-life assay. The format is in vitro ADME. To be noted: human plasma, 37° C., LC-MS; read-out: Human Plasma T½ (converted).
Data set [2] can be described thus: Rat plasma half-life assay. In kind it is in vitro ADME. To be noted: rat plasma, 37° C., LC-MS; read-out: Rat Plasma T½ (converted).
A short description of data set [3]: In vivo insulin secretion in normal rats. More on the design: species or system Sprague Dawley rats. As to conditions: fasted male rats, iv compound with glucose 1 g/kg, samples to 20 minutes. The protocol:
D. Determination of In Vivo Insulin Secretion in Normal Rats
Male Sprague Dawley rats with a body weight of approximately 275-300 g were used as experimental subjects. The day prior to the treatment, right atrial cannulae were implanted via the jugular vein under chlorohydrate. Each cannula was filled with 100 u/ml heparin saline and tied. The rats were fasted for approximately 18 hours prior to dosing with the compound or the vehicle (saline/0.25% BSA). The day of the experiment, aliquots of compound were thawed, brought to room temperature and vortexed thoroughly. A careful check was made for any sign of compound coming out of solution. 10 minutes prior to compound/glucose injection, a 500 μl blood sample was withdrawn and replaced with an equal volume of heparinized saline (10 u/ml). At time 0, a 500 μl blood sample was withdrawn through the cannula. Next, either the vehicle or the appropriate dose of the compound was injected into the cannula and pushed in with the glucose (1 g/kg) or vehicle solution. Finally, 500 μl of volume of heparinized saline (10 u/ml) was used to push in the remaining glucose through the cannula. Additional 500 μl blood samples were withdrawn at 2.5, 5, 10, and 20-minute post-glucose dosing; each immediately followed by a bolus, iv injection of 500 μl heparinized saline (10 u/ml) through the cannula. The plasma was collected from the blood samples by centrifugation, and stored at −20° C. until assay for insulin content. Numerical values of the total insulin secretion, which show the in vivo effects of the compounds of Examples 105, 106, 118, and 119, are summarized in Table 3.

The target in data set [4] is T1, human recombinant GIP receptor (Homo sapiens, UniProt P48546).
T1 construct: expressed in transfected cells; host or cells: CHO-K1 clonal cells (membranes)
T1 sequence (P48546 22-466): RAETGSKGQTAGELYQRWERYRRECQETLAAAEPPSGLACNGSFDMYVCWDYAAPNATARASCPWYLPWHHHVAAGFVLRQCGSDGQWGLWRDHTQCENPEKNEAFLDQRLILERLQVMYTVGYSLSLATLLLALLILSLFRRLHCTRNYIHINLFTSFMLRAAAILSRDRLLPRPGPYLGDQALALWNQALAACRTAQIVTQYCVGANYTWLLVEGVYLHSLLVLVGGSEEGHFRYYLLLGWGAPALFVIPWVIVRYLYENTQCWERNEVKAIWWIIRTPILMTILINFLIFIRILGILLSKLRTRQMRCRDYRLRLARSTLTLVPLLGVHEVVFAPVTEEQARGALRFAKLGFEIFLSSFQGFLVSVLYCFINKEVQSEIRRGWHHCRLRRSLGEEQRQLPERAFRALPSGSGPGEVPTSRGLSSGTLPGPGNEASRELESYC
The data set is described as follows: In vitro hGIP receptor binding assay ([125I]GIP displacement, CHO-K1 membranes). An excerpt:
A. In Vitro hGIP Receptor Binding Assay

Where no end group is shown, it is not given here. [ ]: non-standard residue; d: D form. Ac5c = NC1(C(=O)O)CCCC1 Bounds are passed on as bounds.

Turning to `CC[C@H](C)[C@H](NC(=O)[C@H](CCCCN)NC(=O)[C@H](CC(=O)O)NC(=O)[C@H](CCSC)NC(=O)[C@H](C)NC(=O)[C@@H](NC(=O)C1(NC(=O)[C@H](Cc2ccc(O)cc2)NC(=O)[C@H](CC(=O)O)NC(=O)[C@H](CO)NC(=O)[C@@H](NC(=O)[C@H](Cc2ccccc2)NC(=O)[C@@H](NC(=O)CNC(=O)[C@H](CCC(=O)O)NC(=O)[C@@H](C)NC(=O)[C@@H](N)Cc2ccc(O)cc2)[C@@H](C)O)[C@@H](C)CC)CCCC1)[C@@H](C)CC)C(=O)N[C@@H](Cc1c[nH]cn1)C(=O)N[C@@H](CCC(N)=O)C(=O)N[C@@H](CCC(N)=O)C(=O)N[C@@H](CC(=O)O)C(=O)N[C@@H](Cc1ccccc1)C(=O)N[C@H](C(=O)N[C@@H](CC(N)=O)C(=O)N[C@@H](Cc1c[nH]c2ccccc12)C(=O)N[C@@H](CC(C)C)C(=O)N[C@@H](CC(C)C)C(=O)N[C@@H](C)C(=O)N[C@@H](CCC(N)=O)C(=O)N[C@@H](CCCCN)C(=O)NCC(=O)N[C@@H](CCCCN)C(=O)N[C@@H](CCCCN)C(=O)N[C@@H](CC(N)=O)C(=O)N[C@@H](CC(=O)O)C(=O)N[C@@H](Cc1c[nH]c2ccccc12)C(=O)N[C@@H](CCCCN)C(=O)N[C@@H](Cc1c[nH]cn1)C(=O)N[C@@H](CC(N)=O)C(=O)N[C@H](C(=O)N[C@H](C(=O)N[C@@H](CCC(N)=O)C(=O)N[C@@H](Cc1c[nH]cn1)C(=O)O)[C@@H](C)O)[C@@H](C)CC)C(C)C` [Example 105, (D-Ala^2, A5c^11, His^43)hGIP(1-43)-OH], the values for the half-life at 0.1 mg/ml in data set [1] and in data set [2] were 19.1 h and 6.9 h, respectively. Besides, the “AUC (total insulin secretion)” value in data set [3] worked out at 114.70.
As for `CCCC[C@H](NC(=O)[C@H](C)NC(=O)[C@@H](NC(=O)C1(NC(=O)[C@H](Cc2ccc(O)cc2)NC(=O)[C@H](CC(=O)O)NC(=O)[C@H](CO)NC(=O)[C@@H](NC(=O)[C@H](Cc2ccccc2)NC(=O)[C@@H](NC(=O)CNC(=O)[C@H](CCC(=O)O)NC(=O)CNC(=O)[C@@H](N)Cc2ccc(O)cc2)[C@@H](C)O)[C@@H](C)CC)CCCC1)[C@@H](C)CC)C(=O)N[C@@H](CC(=O)O)C(=O)N[C@@H](CCCCN)C(=O)N[C@H](C(=O)N[C@@H](Cc1c[nH]cn1)C(=O)N[C@@H](CCC(N)=O)C(=O)N[C@@H](CCC(N)=O)C(=O)N[C@@H](CC(=O)O)C(=O)N[C@@H](Cc1ccccc1)C(=O)N[C@H](C(=O)N[C@@H](CC(N)=O)C(=O)N[C@@H](Cc1c[nH]c2ccccc12)C(=O)N[C@@H](CC(C)C)C(=O)N[C@@H](CC(C)C)C(=O)N[C@@H](C)C(=O)N[C@@H](CCC(N)=O)C(=O)N[C@@H](CCCCN)C(=O)NCC(=O)N[C@@H](CCCCN)C(=O)N[C@@H](CCCCN)C(=O)N[C@@H](CC(N)=O)C(=O)N[C@@H](CC(=O)O)C(=O)N[C@@H](Cc1c[nH]c2ccccc12)C(=O)N[C@@H](CCCCN)C(=O)N[C@@H](Cc1c[nH]cn1)C(=O)N[C@@H](CC(N)=O)C(=O)N[C@H](C(=O)N[C@H](C(=O)N[C@@H](CCC(N)=O)C(=O)N[C@@H](Cc1c[nH]cn1)C(=O)O)[C@@H](C)O)[C@@H](C)CC)C(C)C)[C@@H](C)CC` [Example 118, (Gly^2, A5c^11, Nle^14, His^43)hGIP(1-43)-OH], the Ki (as a rule, a dissociation constant, usually derived from enzyme kinetics or from competition with a known ligand) in data set [4] was 870 pM. Further, the half-life at 0.1 mg/ml in data set [1] was above 42 h; in data set [2] it was 11.2 h. Further, the “AUC (total insulin secretion)” value in data set [3] came out at 88.22.
For the molecule `CCCC[C@H](NC(=O)[C@H](C)NC(=O)[C@@H](NC(=O)C1(NC(=O)[C@H](Cc2ccc(O)cc2)NC(=O)[C@H](CC(=O)O)NC(=O)[C@H](CO)NC(=O)[C@@H](NC(=O)[C@H](Cc2ccccc2)NC(=O)[C@@H](NC(=O)CNC(=O)[C@H](CCC(=O)O)NC(=O)[C@@H](C)NC(=O)[C@@H](N)Cc2ccc(O)cc2)[C@@H](C)O)[C@@H](C)CC)CCCC1)[C@@H](C)CC)C(=O)N[C@@H](CC(=O)O)C(=O)N[C@@H](CCCCN)C(=O)N[C@H](C(=O)N[C@@H](Cc1c[nH]cn1)C(=O)N[C@@H](CCC(N)=O)C(=O)N[C@@H](CCC(N)=O)C(=O)N[C@@H](CC(=O)O)C(=O)N[C@@H](Cc1ccccc1)C(=O)N[C@H](C(=O)N[C@@H](CC(N)=O)C(=O)N[C@@H](Cc1c[nH]c2ccccc12)C(=O)N[C@@H](CC(C)C)C(=O)N[C@@H](CC(C)C)C(=O)N[C@@H](C)C(=O)N[C@@H](CCC(N)=O)C(=O)N[C@@H](CCCCN)C(=O)NCC(=O)N[C@@H](CCCCN)C(=O)N[C@@H](CCCCN)C(=O)N[C@@H](CC(N)=O)C(=O)N[C@@H](CC(=O)O)C(=O)N[C@@H](Cc1c[nH]c2ccccc12)C(=O)N[C@@H](CCCCN)C(=O)N[C@@H](Cc1c[nH]cn1)C(=O)N[C@@H](CC(N)=O)C(=O)N[C@H](C(=O)N[C@H](C(=O)N[C@@H](CCC(N)=O)C(=O)N[C@@H](Cc1c[nH]cn1)C(=O)O)[C@@H](C)O)[C@@H](C)CC)C(C)C)[C@@H](C)CC` [Example 119, (D-Ala^2, A5c^11, Nle^14, His^43)hGIP(1-43)-OH], the half-life at 0.1 mg/ml in data set [1] was 35.7 h; in data set [2] it was 15.4 h. Moreover, in data set [3], the “AUC (total insulin secretion)” value was found to be 167.48.
“Y[dA]EGTFISDY[Ac5c]IAMDKIHQQDFVNWLLAQKGKKNDWKHNI[Ac5c]Q-OH [Example 106, (D-Ala^2, A5c^11, 41)hGIP(1-42)-OH]”: the half-life at 0.1 mg/ml is above 55 h in data set [1] and 9.2 h in data set [2]. In data set [3], the “AUC (total insulin secretion)” value is reported as 161.73.
